Like-named read-outs stand apart in the source and are kept apart here.
Tests used:
HIV-1LAI = experiment: Inhibition of HIV infection of human PBMCs (infectious virus production, read out on LC5-RIC cells); assay type: cell-based; conditions: mean ± SD
Description: To evaluate anti-HIV efficacies of test compounds in primary human target cells, stimulated PBMCs were seeded in 96-well plates at a density of 500,000 cells per well, different #7concentrations of the compound (serial dilutions) and virus inoculum (MOI of 0.5) added to the PBMCs and cultures incubated for 48 h. Infectious virus production was quantified by transferring 35 µl of supernatant from the PBMC cultures to LC5-RIC cells, seeded in black 96-well plates one day earlier. LC5-RIC cultures were then incubated for 72 h and analysed for DsRed1 reporter expression and anti-HIV activity calculated as described for the EASY-HIT assay.

[1] = system: DsRed1 reporter gene activated by early viral gene expression; experiment: DsRed1 reporter gene expression in HIV-exposed LC5-RIC cultures (first step of two-step assay); assay type: cell-based, HIV-1; set-up: unit not given here; conditions: 50 nM, 48 h
Source text: The reporter gene in LC5-RIC cells contains the HIV promoter and other regulatory elements of HIV expression and is activated by early viral gene expression during HIV infection. Use of LC5-RIC cells in a previously described two-step assay format allows comparison of the effect of compound treatment on expression of the DsRed1 reporter gene and infectious virus production in the same cultures. As reference compound, we used an experimental inhibitor of HIV transcription called Flavopiridol. Flavopiridol blocks pTEFb, an essential co-factor for Tat-dependent activation[18],[19]. […]
Figure 2 Comparison of effects of compound #7 treatment on reporter gene expression and production of infectious virus in LC5-RIC cultures. […] Effects of compound treatment on reporter gene expression and production of infectious virus were determined in LC5-RIC cultures exposed to virus inoculum in the presence or absence of compounds for 48 h. Fluorescent signals of these primary cultures were measured to determine effects on reporter gene expression. Effects on infectious virus production were determined by transferring aliquots of the supernatants of primary cultures to uninfected LC5-RIC cells, and fluorescent signals determined in secondary plates 72 h after transfer. […]

[2] = system: integrated proviral HIV-1 DNA; experiment: Integrated proviral HIV-1 DNA by Alu-PCR in LC5-RIC cells; assay type: cell-based; conditions: HIV-1LAI, 48 h, concentrations >2x IC90, normalized to DMSO
Description: Quantitative analysis of integrated copies of HIV proviral DNA by Alu-PCR was performed essentially as described in[46]. Briefly, LC5-RIC cells seeded at a density of 100,000 cells per well in 12-well plates and incubated for 24 h were exposed to test compounds and HIV-1LAI virus inoculum at an MOI of 0.5 and incubated for further 48 h at 37 °C, 5% CO2. Subsequently, cells were harvested and genomic DNA (gDNA) was extracted using the QIAamp DNA Mini Kit (QIAGEN) according to the manufacturer’s protocol. The relative amount of integrated proviral HIV-1 DNA was determined by two-step Alu-PCR[46]. The relative amounts of integrated proviral HIV-1 DNA in treated versus untreated samples were calculated by the 2^(−ΔΔCt) method, with ΔCT values representing CT (HIV) - CT (β-globin) for each sample and ΔΔCT values representing values of treated samples normalized to untreated samples.

PBMC = experiment: CellTiter-Glo 2.0 cell viability assay in PBMC; assay type: cell-based, human; conditions: PBMC
Description: The following assays were used to profile cell safety of compound treatment in HIV-exposed cultures (LC5-RIC or PBMC): (1) CellTox^TM Green Cytotoxicity Assay, Promega, measures binding of a fluorescent dye to DNA of cells with impaired membrane integrity; (2) CellTiter-Glo® 2.0 Assay, Promega, which measures the amount of ATP in viable cells after lysis using an assay with luminescence read-out. Cells were plated into black 96-well plates followed by overnight incubation at 37 °C, 5% CO2. Compounds dissolved in DMSO were screened at multiple concentrations from 0.6 to 10,000 nM at a final DMSO concentration of 0.04% followed by additional 48 h incubation. Both assays were performed according to manufacturer’s recommendations and consecutively in the above mentioned order. Cells were washed once with PBS between the assays.

HIV integrase = molecular target: T1, HIV integrase (Human immunodeficiency virus type 1 group M subtype B, UniProt P04585); experiment: HIV Integrase Activity Assay (HIV-1 Integrase Assay Kit); assay type: biochemical; conditions: 10 µM
T1 construct: purchased XpressBio
Description: HIV Integrase Activity Assay. To evaluate the inhibitory effect of test compounds to counteract HIV integrase activity, the HIV-1 Integrase Assay Kit (XpressBio) was conducted according to manufacturer’s recommendations. Dolutegravir was used as reference inhibitor.

SMILES	IC50 (HIV-1LAI; Human immunodeficiency virus 1, Table S2, PBMC, read-out: Anti-HIV in PBMC, IC50) [nM]	Reporter gene expression, median (fluorescent signal normalized to untreated virus-exposed cultures) [1]	reduction of levels of integrated proviral DNA [2]	IC90 (HIV-1LAI; Human immunodeficiency virus 1, PBMC, read-out: IC90, 90% HIV-inhibitory concentration, human PBMCs exposed to HIV-1LAI) [nM]	IC50 (HIV-1LAI; Human immunodeficiency virus 1, PBMC, human PBMCs exposed to HIV-1LAI, read-out: IC50, half maximal HIV-inhibitory concentration) [nM]	IC90 (HIV-1LAI; read-out: IC90, 90% HIV-inhibitory concentration, human PBMCs exposed to HIV-1LAI) [nM]	selectivity index (CC50/IC50) (PBMC)	inhibitory effect on Integrase activity (HIV integrase)
CN1CC[C@H](c2c(O)cc(O)c3c(=O)cc(-c4ccccc4Cl)oc23)[C@H](O)C1 [Flavopiridol]	35.6 ± 3.46	9.33	did not reveal reduction of proviral DNA levels	–	–	–	–	–
COc1oc(C2C/C(=C/C(C)=C/c3ccc(C(F)(F)F)cc3)CO2)c(C)c(=O)c1C (stereo not shown) [compound #7]	–	55.3	< 20%	< 45	10.3 ± 0.65	41 ± 1.23	> 970	no inhibitory effects

From paper PMC6987146, “Potent inhibition of HIV replication in primary human cells by novel synthetic polyketides inspired by Aureothin” (Scientific Reports, 2020)
